# Data reported in US8871901B2, “Phage constructs, sequences and antigenic compositions for immunocontraception of animals” (Auburn University, priority 2010, dated 2014).
# Test system: dog oocyte ZP
# Experiment: Landscape phage library selection on dog oocytes with intact zona pellucida
# Type: binding
# Settings: 9-mer peptides displayed on landscape phage
# Source text: Using a strategy similar to the strategy of Examples 2 and 5, 9-mer peptides that bind to dog oocyte ZP were identified using a landscape phage library. In this library, foreign (non-phage) 9-mer peptides are expressed in each pVIII copy over the phage surface resulting in thousands of peptide copies per phage particle. […] Sequences of the identified peptides are DDLNSFVND (SEQ ID NO:47); ADLAAFYDD (SEQ ID NO:48); EPGGMVGSD (SEQ ID NO:49); DGVYLVGDD (SEQ ID NO:50); DWSGQDVEN (SEQ ID NO:51); and GMVGSGYDS (SEQ ID NO:52).
row,Sequence,binding to dog ZP
1,ADLAAFYDD (Phage library random peptide insert) [SEQ ID NO:48],specifically recognize and bind to dog ZP
2,DDLNSFVND (Phage library random peptide insert) [SEQ ID NO:47],specifically recognize and bind to dog ZP
3,DGVYLVGDD (Phage library random peptide insert) [SEQ ID NO:50],specifically recognize and bind to dog ZP
4,DWSGQDVEN (Phage library random peptide insert) [SEQ ID NO:51],specifically recognize and bind to dog ZP
5,EPGGMVGSD (Phage library random peptide insert) [SEQ ID NO:49],specifically recognize and bind to dog ZP
6,GMVGSGYDS (Phage library random peptide insert) [SEQ ID NO:52],specifically recognize and bind to dog ZP

# Test system: pig oocyte ZP
# Experiment: Landscape phage library selection on pig oocytes with intact zona pellucida, after negative selection on cat, dog and cow oocytes
# Type: binding
# Settings: 9-mer peptides displayed on landscape phage
# Description: Using a strategy similar to the strategy of Example 2, 9-mer peptides that bind specifically to pig oocyte ZP were identified using a landscape phage library. In this library, foreign (non-phage) 9-mer peptides are expressed in each pVIII copy over the phage surface resulting in thousands of peptide copies per phage particle. […] Prior to phage display library selection on pig oocytes, negative selection steps on cat, dog and cow oocytes were performed. Sequences of the identified peptides are DPGLSLGDD (SEQ ID NO:41); AYNLGEGDT (SEQ ID NO:42); GQQGLNGDS (SEQ ID NO:43); DVGGGTGTE (SEQ ID NO:44); GPNSSDADS (SEQ ID NO:45); and GEGGYGSHD (SEQ ID NO:46).
row,Sequence,binding to pig ZP
1,AYNLGEGDT (Phage library random peptide insert) [SEQ ID NO:42],specifically recognize and bind to pig ZP
2,DPGLSLGDD (Phage library random peptide insert) [SEQ ID NO:41],specifically recognize and bind to pig ZP
3,DVGGGTGTE (Phage library random peptide insert) [SEQ ID NO:44],specifically recognize and bind to pig ZP
4,GEGGYGSHD (Phage library random peptide insert) [SEQ ID NO:46],specifically recognize and bind to pig ZP
5,GPNSSDADS (Phage library random peptide insert) [SEQ ID NO:45],specifically recognize and bind to pig ZP
6,GQQGLNGDS (Phage library random peptide insert) [SEQ ID NO:43],specifically recognize and bind to pig ZP

# Test system: cat oocyte ZP
# Experiment: Landscape phage library selection on cat oocytes with intact zona pellucida
# Type: binding
# Settings: 9-mer peptides displayed on landscape phage
# Source text: Using a strategy similar to the strategy of Examples 2, 5, and 7, 9-mer peptides that bind to cat oocyte ZP were identified using a landscape phage library. In this library, foreign (non-phage) 9-mer peptides are expressed in each pVIII copy over the phage surface resulting in thousands of peptide copies per phage particle. […] Sequences of the identified peptides are AGSSYTQDS (SEQ ID NO:53); EVNGGSADS (SEQ ID NO:54); EAYPGLDWD (SEQ ID NO:55); and VKSEDPSLN (SEQ ID NO:56).
row,Sequence,binding to cat ZP
1,AGSSYTQDS (Phage library random peptide insert) [SEQ ID NO:53],specifically recognize and bind to cat ZP
2,EAYPGLDWD (Phage library random peptide insert) [SEQ ID NO:55],specifically recognize and bind to cat ZP
3,EVNGGSADS (Phage library random peptide insert) [SEQ ID NO:54],specifically recognize and bind to cat ZP
4,VKSEDPSLN (Phage library random peptide insert) [SEQ ID NO:56],specifically recognize and bind to cat ZP
